Patent US20100120789A1, “Compound” (priority 2005, published 2010)

Columns and labels:
[1] = target: T1, Human 11β-HSD1 (Homo sapiens, UniProt P28845); assay: 11β-HSD1 HEK assay (whole HEK 293 cells stably transfected with HSD11B1, SPA); format: cell-based; set-up: expressed in transfected cells; host or cells: HEK 293; conditions: for IC50: HEK293, read-out: IC50 (nM) Inhibition of Human 11β-HSD1 (HEK293); for inhibition at 10 µM: HEK293, read-out: % INHIBITION of Human 11 β-HSD1 at 10 μM (HEK)
T1 sequence (P28845 whole entry): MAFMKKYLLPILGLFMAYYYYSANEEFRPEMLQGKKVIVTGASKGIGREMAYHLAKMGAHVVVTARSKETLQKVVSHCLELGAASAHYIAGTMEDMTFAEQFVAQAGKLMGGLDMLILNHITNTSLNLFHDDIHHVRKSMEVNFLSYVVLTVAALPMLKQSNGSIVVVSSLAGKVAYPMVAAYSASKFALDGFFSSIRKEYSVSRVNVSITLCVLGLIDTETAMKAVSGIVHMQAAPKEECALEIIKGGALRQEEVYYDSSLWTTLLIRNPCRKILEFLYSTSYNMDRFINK
Description: 11β-HSD1 HEK Assay Protocol (Cell Based Assay)
11β-HSD1 activity is measured in whole HEK 293 cells stably transfected with the HSD11B1 gene. Cells are incubated in 96-well microplates in the presence of tritiated substrate. Enzyme activity is determined by measuring the amount of tritated product by scintillation proximity assay (SPA). Assay plates contain internal high and low controls to allow calculation of percentage inhibition.
2. When the cells are 80% confluent the medium is removed from each well. 100 μl fresh, serum-free, medium containing ^3H-cortisone and test compound in 1% DMSO is added to each well*. Control wells are also dispensed.
3. The plate is incubated at […] for the required time period.
4. 50 μl of media is removed from each well and transferred to a microplate containing 100 μl of a pre-incubated mixture of anti-cortisol antibody and SPA bead. The mixture is incubated with gentle shaking until equilibrium is reached, before transferring to a scintillation counter to establish the enzyme activity in each sample.
10 μl of compound is dispensed into each well of a 96-well microplate in 10% DMSO at 100 μM concentration. 90 μl media containing ^3H-cortisone is added to each well. The compound/media/substrate mixture is then transferred to the assay plate containing the cells.

[2] = target: T1, Human 11β-HSD1; assay: 11β-HSD1 HTRF assay (human liver microsome fractions, cortisol by HTRF); format: biochemical; conditions: 10 μM compound; human liver microsomes
Description: 11β-HSD1 HTRF Assay Protocol
The 11β-HSD Type 1 assay was carried out at room temperature in 96 well microtitre plates in a total volume of 40 μl. Assay buffer contained 30 mM Tris.HCl, 1 mM EDTA, pH 7.2. Inhibitor compounds were tested at varying concentrations at a final Dimethyl Sulphoxide concentration of 1%. Compounds were usually tested at 10 μM. The substrate mixture contained cortisone, NADPH and glucose-6-phosphate at final concentrations of 1 μM, 180 μM and 1 mM respectively. Assays were started by the addition of 10p1 human liver microsome fractions, 20 mg per ml protein, containing 11β-HSD Type 1, diluted 1 to 40 prior to use. Following mixing microtitre plates were shaken for 30 minutes. Reactions were stopped by the addition of 10 μl 1 mM Glyccheritinnic acid solution. Production of Cortisol was measured by Homogenous Time Resolved Fluorescence using a cortisol assay kit; Cisbio International Cortisol HTRF kit (62CORPEB), following the manufacturer's protocol.

| IC50 [1] | Structure (SMILES) | inhibition at 10 µM [2] | inhibition at 10 µM [1] |
| --- | --- | --- | --- |
| 117 nM | NC(=O)c1ccc(OCC(=O)C23CC4CC(CC(C4)C2)C3)cc1 [Compound 1] | – | – |
| 1050 nM | NC(=O)c1cccc(OCC(=O)C23CC4CC(CC(C4)C2)C3)c1 [Compound 9] | – | – |
| 68 nM | CNC(=O)c1cccc(OCC(=O)C23CC4CC(CC(C4)C2)C3)c1 [Compound 10] | – | – |
| 343 nM | CCNC(=O)c1cccc(OCC(=O)C23CC4CC(CC(C4)C2)C3)c1 [Compound 11] | – | – |
| 1220 nM | CC(C)NC(=O)c1cccc(OCC(=O)C23CC4CC(CC(C4)C2)C3)c1 [Compound 12] | – | – |
| 94 nM | CNC(=O)Cc1ccc(OCC(=O)C23CC4CC(CC(C4)C2)C3)cc1 [Compound 13] | – | – |
| 204 nM | NC(=O)Cc1ccc(OCC(=O)C23CC4CC(CC(C4)C2)C3)cc1 [Compound 15] | – | – |
| 912 nM | CCNC(=O)Cc1ccc(OCC(=O)C23CC4CC(CC(C4)C2)C3)cc1 [Compound 16] | – | – |
| 250 nM | CNC(=O)c1ccc(COCC(=O)C23CC4CC(CC(C4)C2)C3)cc1 [Compound 18] | – | – |
| – | CCCc1ccc(S(=O)(=O)NC23CC4CC(CC(C4)C2)C3)cc1 [compound 1341] | 20 to 60% | 20 to 60% |
| – | O=S(=O)(NC12CC3CC(CC(C3)C1)C2)c1cc(Cl)ccc1Cl [compound 1342] | – | 20 to 60% |
| – | Cc1c(Cl)cccc1S(=O)(=O)NC12CC3CC(CC(C3)C1)C2 [compound 1343] | – | 20 to 60% |
| – | O=S(=O)(NC12CC3CC(CC(C3)C1)C2)c1ccc(-c2ccccc2)cc1 [compound 1344] | 20 to 60% | 20 to 60% |
| – | CCCc1ccc(S(=O)(=O)NCC23CC4CC(CC(C4)C2)C3)cc1 [compound 1368] | > 60% | 20 to 60% |
| – | Cc1c(Cl)cccc1S(=O)(=O)NCC12CC3CC(CC(C3)C1)C2 [compound 1370] | – | 20 to 60% |
| – | O=S(=O)(NCC12CC3CC(CC(C3)C1)C2)c1ccc(-c2ccccc2)cc1 [compound 1371] | – | 20 to 60% |
| – | Cc1nc2c(NC(=O)C34CC5CC(CC(C5)C3)C4)c(C)ccc2s1 [compound 1372] | 20 to 60% | 20 to 60% |
| – | Cc1nc2c(Cl)c(NC(=O)C34CC5CC(CC(C5)C3)C4)ccc2s1 [compound 1373] | 20 to 60% | > 60% |
| – | O=C(NCc1cccs1)C12CC3CC(CC(C3)C1)C2 [compound 1374] | > 60% | > 60% |
| – | O=C(NCCc1cccs1)C12CC3CC(CC(C3)C1)C2 [compound 1375] | > 60% | > 60% |
| – | Cc1nc2cc(NCC(=O)C34CC5CC(CC(C5)C3)C4)ccc2s1 [compound 1487] | > 60% | > 60% |
| – | O=S(=O)(Cc1ccc(Cl)cc1)NC12CC3CC(CC(C3)C1)C2 [compound 1499] | 20 to 60% | < 20% |
| – | O=S(=O)(Cc1cccc(Cl)c1)NC12CC3CC(CC(C3)C1)C2 [compound 1500] | 20 to 60% | < 20% |
| – | Cc1nc2cc(NC(=O)CC34CC5CC(CC(C5)C3)C4)ccc2s1 [compound 1566] | – | 20 to 60% |
| – | O=S(=O)(NC12CC3CC(CC(C3)C1)C2)c1cccs1 [compound 1573] | > 60% | – |

| IC50 [1] | Structure (SMILES) | inhibition at 10 µM [2] | inhibition at 10 µM [1] |
| --- | --- | --- | --- |
| – | CN(Cc1cccs1)C(=O)C12CC3CC(CC(C3)C1)C2 [compound 1576] | > 60% | – |
| – | Clc1ccc(-c2noc(C34CC5CC(CC(C5)C3)C4)n2)cc1 [compound 1627] | 20 to 60% | – |
| – | O=C(NCc1cccs1)C1CCCCC1 [compound 1638] | – | 20 to 60% |
| – | CC(C)(C)CC(=O)NCc1cccs1 [compound 1639] | – | 20 to 60% |
| – | CC(C(=O)NCc1cccs1)(c1ccccc1)c1ccccc1 [compound 1640] | – | 20 to 60% |
| – | CC1(C(=O)NCc2cccs2)CC1 [compound 1641] | – | 20 to 60% |
| – | CC1(C(=O)NCc2cccs2)CCCCC1 [compound 1642] | – | 20 to 60% |
| – | O=C(NCc1cccs1)C12CC3CC(CC1C3)C2 [compound 1648] | – | > 60% |
| – | CC(C(=O)NCCc1cccs1)(c1ccccc1)c1ccccc1 [compound 1650] | – | < 20% |
| – | O=C(NCCc1cccs1)C1(c2ccc(Cl)cc2)CCCC1 [compound 1651] | – | < 20% |
| – | CC(C)(C)CC(=O)NCCc1cccs1 [compound 1652] | – | 20 to 60% |
| – | CC1(C(=O)NCCc2cccs2)CC1 [compound 1654] | – | 20 to 60% |
| – | CC1(C(=O)NCCc2cccs2)CCCCC1 [compound 1655] | – | > 60% |
| – | O=C(NCCc1cccs1)C12CC3CC(CC1C3)C2 [compound 1656] | – | > 60% |
| – | Cc1ccc(Cc2noc(C34CC5CC(CC(C5)C3)C4)n2)cc1 [compound 1660] | – | 20 to 60% |
| – | CN(Cc1cccs1)C(=O)CC12CC3CC(CC(C3)C1)C2 [compound 1661] | – | > 60% |
| – | O=C(CC12CC3CC(CC(C3)C1)C2)NCc1ccco1 [compound 1662] | – | > 60% |
| – | Cn1cccc1CNC(=O)CC12CC3CC(CC(C3)C1)C2 [compound 1663] | – | > 60% |
| – | Cc1ccc(Cc2noc(CC34CC5CC(CC(C5)C3)C4)n2)cc1 [compound 1664] | – | 20 to 60% |
| – | CC12CC3CC(C)(C1)CC(C(=O)NCc1cccs1)(C3)C2 [compound 1671] | – | > 60% |
| – | CC12CC3CC(C)(C1)CC(C(=O)NCCc1cccs1)(C3)C2 [compound 1672] | – | > 60% |
| – | CC(C)(C)C(=O)NCc1cccs1 [compound 1673] | – | 20 to 60% |
| – | CC(C)(C)C(=O)NCCc1cccs1 [compound 1674] | – | 20 to 60% |
| – | O=C(NCc1cccs1)C12CC3CC(CC(O)(C3)C1)C2 [compound 1675] | – | < 20% |
| – | O=C(NCCc1cccs1)C12CC3CC(CC(O)(C3)C1)C2 [compound 1676] | – | > 60% |

| IC50 [1] | Structure (SMILES) | inhibition at 10 µM [2] | inhibition at 10 µM [1] |
| --- | --- | --- | --- |
| – | c1csc(Cc2noc(C34CC5CC(CC(C5)C3)C4)n2)c1 [compound 1687] | – | 20 to 60% |
| – | O=C(NCc1cc2ccccc2s1)C12CC3CC(CC(C3)C1)C2 [compound 1688] | – | < 20% |
| – | O=C(NCc1csc2ccccc12)C12CC3CC(CC(C3)C1)C2 [compound 1689] | – | 20 to 60% |
| – | O=C(CC12CC3CC(CC(C3)C1)C2)NCc1cc2ccccc2s1 [compound 1690] | – | 20 to 60% |
| – | O=C(CC12CC3CC(CC(C3)C1)C2)NCc1csc2ccccc12 [compound 1691] | – | 20 to 60% |
| – | O=C(COCc1cccs1)C12CC3CC(CC(C3)C1)C2 [compound 1692] | – | > 60% |
| – | CN(Cc1cccs1)C(=O)C1CCCCC1 [compound 1693] | – | > 60% |
| – | CN(Cc1cccs1)C(=O)CC(C)(C)C [compound 1694] | – | > 60% |
| – | CN(Cc1cccs1)C(=O)C(C)(C)C [compound 1695] | – | < 20% |
| – | CN(Cc1cccs1)C(=O)C1(c2ccc(Cl)cc2)CCCC1 [compound 1696] | – | > 60% |
| – | CN(Cc1cccs1)C(=O)C1(C)CC1 [compound 1697] | – | < 20% |
| – | CN(Cc1cccs1)C(=O)C(C)(c1ccccc1)c1ccccc1 [compound 1698] | – | 20 to 60% |
| – | CN(Cc1cccs1)C(=O)C1(C)CCCCC1 [compound 1699] | – | > 60% |
| – | CN(Cc1cccs1)C(=O)C12CC3CC(CC(C3)C1)C2 [compound 1700] | – | > 60% |
| – | O=C(NCc1cccs1)[C@H]1CC2C=CC1C2 (stereo partly drawn) [compound 1706] | – | 20 to 60% |
| – | O=C(NCCc1cccs1)[C@H]1CC2C=CC1C2 (stereo partly drawn) [compound 1707] | – | 20 to 60% |
| – | O=C(NCCc1cccs1)[C@@H]1CC2C=CC1C2 (stereo partly drawn) [compound 1708] | – | 20 to 60% |
| – | CN(Cc1cccs1)C(=O)[C@H]1CC2C=CC1C2 (stereo partly drawn) [compound 1709] | – | > 60% |
| – | CN(Cc1cccs1)C(=O)[C@@H]1CC2C=CC1C2 (stereo partly drawn) [compound 1710] | – | > 60% |
| – | O=C(NC12CC3CC(CC(C3)C1)C2)OCc1cccs1 [compound 1711] | – | > 60% |
| – | O=C(NC12CC3CC(CC(C3)C1)C2)OCCc1cccs1 [compound 1712] | – | > 60% |
| – | O=C(NCc1cccs1)NC12CC3CC(CC(C3)C1)C2 [compound 1713] | – | 20 to 60% |
| – | O=C(NCCc1cccs1)NC12CC3CC(CC(C3)C1)C2 [compound 1714] | – | > 60% |
| – | O=C(N1CCc2sccc2C1)C12CC3CC(CC(C3)C1)C2 [compound 1721] | – | > 60% |
